Where a name gives a salt, the structure may show the parent alone. Read-outs that look alike come from different tables or passages of the source.
System: Acinetobacter baumannii ATCC17961
Assay: Antimicrobial susceptibility testing: 90% growth inhibitory concentration (IC90) determination in Iso-Sensitest broth, OD600 growth
Assay type: cell-based
Method in brief: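 Serial twofold dilution, 10 points, e.g. 50–0.097 μM final; ~5×10^(5) CFU/ml; 35±2° C, 16 h; kinetic OD600 every 20 min; IC90 from log-phase inhibition.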

[1] = Acinetobacter baumannii, ATCC17961, 16 h, read-out: A. baumannii ATCC 17961 IC90 (uM), strain ATCC 17961, OD600 growth over 16 h
[2] = Acinetobacter baumannii, ATCC17961, 16 h, strain ATCC 17961, OD600 growth over 16 h, read-out: A. baumannii ATCC 17961 IC90
[3] = strain ATCC 17961, OD600 growth over 16 h, read-out: A. baumannii ATCC 17961 IC90

IC90 [2] [µM] | Structure (SMILES) | IC90 [1] [µM] | also measured
– | Cc1cc(Nc2nccn3c(-c4cn(CC#N)nc4C(F)(F)F)cnc23)ccc1C(=O)N1CCN(C(=O)C2(O)CCNCC2)CC1 [Example 425, formic acid; 2-[4-[8-[4-[4-(4-hydroxypiperidine-4-carbonyl]piperazine-1-carbonyl]-3-methylanilino]imidazo[1,2-a]pyrazin-3-yl]-3-(trifluoromethyl)pyrazol-1-yl]acetonitrile] | 0.691 | –
0.274 | N#CCn1cc(-c2cnc3c(Nc4ccc(C(=O)N5CCN(C(=O)[C@@H]6CC[C@H](N)C6)CC5)c(Cl)c4)nccn23)c(C(F)(F)F)n1 [Example 194, 2-[4-[8-[4-[4-[(1R,3S)-3-aminocyclopentanecarbonyl]piperazine-1-carbonyl]-3-chloroanilino]imidazo[1,2-a]pyrazin-3-yl]-3-(trifluoromethyl)pyrazol-1-yl]acetonitrile formate] | – | –
0.327 | C#CCNC(=O)c1c(C)cc(Nc2nccn3c(-c4cn(Cc5nc(CC6CC6)no5)nc4C(F)(F)F)cnc23)cc1F [Example 38, 4-[[3-[1-[[3-(cyclopropylmethyl)-1,2,4-oxadiazol-5-yl]methyl]-3-(trifluoromethyl)pyrazol-4-yl]imidazo[1,2-a]pyrazin-8-yl]amino]-2-fluoro-6-methyl-N-prop-2-ynylbenzamide] | – | –
– | CCc1cc(Nc2nccn3c(-c4cn(CC#N)nc4C(F)(F)F)cnc23)ccc1C(=O)NCC(=O)N1CC2(CNC2)C1 [Example 505, 4-[[3-[1-(cyanomethyl)-3-(trifluoromethyl)pyrazol-4-yl]imidazo[1,2-a]pyrazin-8-yl]amino]-N-[2-(2,6-diazaspiro[3.3]heptan-2-yl)-2-oxo-ethyl]-2-ethyl-benzamide formate] | 0.449 | –
– | CCc1cc(Nc2nccn3c(-c4cn(CC(F)F)nc4C(F)(F)F)cnc23)ccc1C(=O)NCC(=O)N1CC2(CNC2)C1 [Example 526, N-[2-(2,6-diazaspiro[3.3]heptan-2-yl)-2-oxo-ethyl]-4-[[3-[1-(2,2-difluoroethyl)-3-(trifluoromethyl)pyrazol-4-yl]imidazo[1,2-a]pyrazin-8-yl]amino]-2-ethyl-benzamide formate] | 0.306 | –
– | CCc1cc(Nc2nccn3c(-c4cn(CC#N)nc4C(F)(F)F)cnc23)ccc1C(=O)NCC(=O)NCC1(O)CCNCC1 [Example 525, 4-[[3-[1-(cyanomethyl)-3-(trifluoromethyl)pyrazol-4-yl]imidazo[1,2-a]pyrazin-8-yl]amino]-2-ethyl-N-[2-[(4-hydroxy-4-piperidyl)methylamino]-2-oxo-ethyl]benzamide formate] | 0.593 | –
0.402 | CCc1cc(Nc2nccn3c(-c4cn(CC#N)nc4C(F)(F)F)cnc23)ccc1C(=O)NCC(=O)NCC1CCCN1 (centres unmarked) [Example 522, 4-[[3-[1-(cyanomethyl)-3-(trifluoromethyl)pyrazol-4-yl]imidazo[1,2-a]pyrazin-8-yl]amino]-2-ethyl-N-[2-oxo-2-(pyrrolidin-2-ylmethylamino)ethyl] benzamide formate] | – | –
0.38 | Cc1cc(Nc2nccn3c(-c4cn(CC#N)nc4C(F)(F)F)cnc23)cc(F)c1C(=O)N1CCN(C(=O)[C@H]2C[C@@H](N)C2)CC1 [Example 699, 2-(4-(8-((4-(4-((1s,3s)-3-aminocyclobutane-1-carbonyl)piperazine-1-carbonyl)-3-fluoro-5-methylphenyl)amino)imidazo[1,2-a]pyrazin-3-yl)-3-(trifluoromethyl)-1H-pyrazol-1-yl) acetonitrile formate] | – | –
1.57 | C#CC(C)n1cc(-c2cnc3c(Nc4ccc(C(=O)N5CCN(C(=O)[C@H]6C[C@H](O)CN6)CC5)c(CC)c4)nccn23)c(C(F)F)n1 (stereo in doubt) [Example 787, (4-(4-((3-(1-(but-3-yn-2-yl)-3-(difluoromethyl)-1H-pyrazol-4-yl)imidazo[1,2-a]pyrazin-8-yl)amino)-2-ethylbenzoyl)piperazin-1-yl)((2R,4S)-4-hydroxypyrrolidin-2-yl)methanone (mixture of epimers)] | – | –
– | N#CCn1cc(-c2cnc3c(Nc4ccc(C(=O)N5CCN(CC(=O)NCCN)CC5)c(Cl)c4)nccn23)c(C(F)(F)F)n1 [Example 602, N-(2-aminoethyl)-2-(4-(2-chloro-4-((3-(1-(cyanomethyl)-3-(trifluoromethyl)-1H-pyrazol-4-yl)imidazo[1,2-a]pyrazin-8-yl)amino)benzoyl)piperazin-1-yl)acetamide formate] | 0.448 | –
– | CCc1cc(Nc2nccn3c(-c4c[nH]nc4C(F)(F)F)cnc23)ccc1C(=O)NCCNC(=O)[C@@H](N)CNC(=N)N [Example 213, N-[2-[[(2S)-2-amino-3-carbamimidamidopropanoyl]amino]ethyl]-2-ethyl-4-[[3-[3-(trifluoromethyl)-1H-pyrazol-4-yl]imidazo[1,2-a]pyrazin-8-yl]amino]benzamide formate] | 0.378 | –
0.154 | CCc1cc(Nc2nccn3c(-c4cn(CC#N)nc4C(F)(F)F)cnc23)ccc1C(=O)NCCCNC(=O)[C@H]1CC[C@@H](N)C1 [Example 484, N-(3-((1S,3R)-3-aminocyclopentane-1-carboxamido)propyl)-4-((3-(1-(cyanomethyl)-3-(trifluoromethyl)-1H-pyrazol-4-yl)imidazo[1,2-a]pyrazin-8-yl)amino)-2-ethylbenzamide formate] | – | –
– | CCc1cc(Nc2nccn3c(-c4cn(CC#N)nc4C(F)(F)F)cnc23)ccc1C(=O)N[C@H](C)C(=O)N[C@@H]1CCNC1 [Example 803, 4-[[3-[1-(cyanomethyl)-3-(trifluoromethyl)pyrazol-4-yl]imidazo[1,2-a]pyrazin-8-yl]amino]-2-ethyl-N-[(1R)-1-methyl-2-oxo-2-[[(3R)-pyrrolidin-3-yl]amino]ethyl]benzamide formate] | 3.77 | –
0.314 | Cc1cc(Nc2nccn3c(-c4cn(CC(F)F)nc4C(F)(F)F)cnc23)cc(F)c1C(=O)N[C@H](C)CNC(=O)CN [Example 673, (R)-N-(1-(2-aminoacetamido)propan-2-yl)-4-((3-(1-(2,2-difluoroethyl)-3-(trifluoromethyl)-1H-pyrazol-4-yl)imidazo[1,2-a]pyrazin-8-yl)amino)-2-fluoro-6-methylbenzamide] | – | –
– | N#CCn1cc(-c2cnc3c(Nc4ccc(C(=O)N5CCN(C(=O)NCCN)CC5)c(Cl)c4)nccn23)c(C(F)(F)F)n1 [Example 264, N-(2-aminoethyl)-4-[2-chloro-4-[[3-[1-(cyanomethyl)-3-(trifluoromethyl)pyrazol-4-yl]imidazo[1,2-a]pyrazin-8-yl]amino]benzoyl] piperazine-1-carboxamide formate] | – | IC90 [3]: 0.451 µM
0.15 | O=C(CNCCNC(=O)c1ccc(Nc2nccn3c(-c4cn(CC(F)F)nc4C(F)(F)F)cnc23)cc1Cl)N[C@H]1CCNC1 [Example 822, (S)-2-chloro-4-(3-(1-2,2-difluoroethyl)-3-(trifluoromethyl)-1H-pyrazol-4-yl)imidazo[1,2-a]pyrazin-8-yl)amino)-N-(2-((2-oxo-2-(pyrrolidin-3-ylamino)ethyl) amino)ethyl) benzamide formate] | – | –
0.125 | CCc1cc(Nc2nccn3c(-c4cn(CCF)nc4C(F)(F)F)cnc23)ccc1C(=O)NCCOCCN1CCCC1 [Example 617, 2-ethyl-4-((3-(1-(2-fluoroethyl)-3-(trifluoromethyl)-1H-pyrazol-4-yl)imidazo[1,2-a]pyrazin-8-yl)amino)-N-(2-(2-(pyrrolidin-1-yl)ethoxy)ethyl) benzamide formate] | – | –
0.29 | N#CCn1cc(-c2cnc3c(Nc4ccc(C(=O)NCCNCC(=O)NC5CNC5)c(Cl)c4)nccn23)c(C(F)(F)F)n1 [Example 816, N-(2-(2-(azetidin-3-ylamino)-2-oxoethyl)amino) ethyl)-2-chloro-4-((3-(1-(cyanomethyl)-3-(trifluoromethyl)-1H-pyrazol-4-yl)imidazo[1,2-a]pyrazin-8-yl)amino) benzamide formate] | – | –
– | CCc1cc(Nc2nccn3c(-c4cn(CC#N)nc4C(F)(F)F)cnc23)ccc1C(=O)N1CCC(O)(CNC)CC1 [Example 219, 2-[4-[8-[3-ethyl-4-[4-hydroxy-4-(methylaminomethyl)piperidine-1-carbonyl]anilino]imidazo[1,2-a]pyrazin-3-yl]-3-(trifluoromethyl)pyrazol-1-yl]acetonitrile formate] | 0.599 | –
0.375 | CNC(=O)c1ccc(Nc2nccn3c(-c4cn(Cc5ccn(CC#N)n5)nc4C(F)(F)F)cnc23)cc1Cl [Example 590, 2-chloro-4-((3-(1-((1-(cyanomethyl)-1H-pyrazol-3-yl)methyl)-3-(trifluoromethyl)-1H-pyrazol-4-yl)imidazo [1,2-a]pyrazin-8-yl)amino)-N-methylbenzamide] | – | –
– | CCc1cc(Nc2nccn3c(-c4c[nH]nc4C(F)(F)F)cnc23)ccc1C(=O)NC1CC2(CNC2)C1 [Example 514, 2-ethyl-N-(2-azaspiro[3.3]heptan-6-yl)-4-((3-(3-(trifluoromethyl)-1H-pyrazol-4-yl)imidazo[1,2-a]pyrazin-8-yl)amino)benzamide formate] | 0.803 | –
0.18 | O=C(CNCCNC(=O)c1ccc(Nc2nccn3c(-c4cn(CC(F)F)nc4C(F)(F)F)cnc23)cc1Cl)N[C@@H]1CCNC1 [Example 823, (R)-2-chloro-4-(3-(1-(2,2-difluoroethyl)-3-(trifluoromethyl)-1H-pyrazol-4-yl)imidazo[1,2-a]pyrazin-8-yl)amino)-N-(2-((2-oxo-2-(pyrrolidin-3-ylamino)ethyl)amino)ethyl) benzamide formate] | – | –
– | Cc1cc(Nc2nccn3c(-c4cn(CC#N)nc4C(F)(F)F)cnc23)cc(F)c1C(=O)N[C@H](C)CNC(=O)[C@H]1C[C@@H](N)C1 [Example 709, N-((R)-1-((1s,3S)-3-aminocyclobutane-1-carboxamido)propan-2-yl)-4-((3-(1-(cyanomethyl)-3-(trifluoromethyl)-1H-pyrazol-4-yl)imidazo[1,2-a]pyrazin-8-yl)amino)-2-fluoro-6-methylbenzamide formate] | – | IC90 [3]: 0.404 µM

Reference: patent US20230203043A1, “NOVEL IMIDAZOPYRAZINE DERIVATIVES” (Hoffmann-La Roche Inc., priority 2020, published 2023)
